PMC8943889, “Synthetic studies with the brevicidine and laterocidine lipopeptide antibiotics including analogues with enhanced properties and in vivo efficacy” (Chemical Science, 2022)
≈ marks a conversion by molar mass, not a printed value. Read-outs that look alike come from different tables or passages of the source. Positions of bridges follow the written chain, without caps; N, C: chain ends. Non-standard residues stand in square brackets, D forms with d. Residues, ends and D or L forms follow the SMILES beside them. ξ: configuration not given here. *: point of attachment. Hexanoyl(4ξ-Me) = CCC(C)CCC(=O)*; dOrn = NCCC[C@@H](N)C(=O)O; Orn = NCCC[C@H](N)C(=O)O

Assays:
A. baumannii 2018-006 = assay type: cell-based
Experimental: (§1) Minimum inhibitory concentrations (MICs) were determined by broth microdilution according to CLSI guidelines in triplicate. Blood agar plates were inoculated with glycerol stocks of E. coli ATCC 25922, E. coli MCR-1 (clinical isolate from Utrecht Medical Centre, NL), E. coli EQAS MCR-2 (clinical isolate from Wageningen University and Research, NL), K. pneumoniae ATCC 11228, K. pneumoniae ATCC 13883, K. pneumonia 2048 (clnical isolate from Vrije Universiteit Amsterdam Medical Centre, NL), K. pneumonia JS-123 (clinical isolate from Utrecht Medical […]
(§2) (clinical isolate from Rijksinstituut voor Volksgezondheid en Milieu, NL), A. baumannii MDR (clinical isolate from Vrije Universiteit Amsterdam Medical Centre, NL), P. aeruginosa ATCC 27853, P. aeruginosa PAO1, P. aeruginosa NRZ-03961 (Reference strain from Das Nationale Referenzzentrum für gramnegative Krankenhauserreger, DE), P. aeruginosa M-120 (clinical isolate from Leiden University Medical Centre, NL) and S. aureus USA300 (clinical isolate from Texas Children's Hospital, USA). E. coli 25922 MCR1 was grown on LB agar supplemented with kanamycin. The inoculated agar plates were then incubated for 16 h at 37°C . Individually grown colonies were subsequently used to inoculate 3 mL aliquots of TSB that were then incubated at 37°C with shaking at 220 rpm. In parallel, the lipopeptide antibiotics to be assessed were serially diluted with Mueller-Hinton broth (MHB) in polypropylene 96-well plates (50 µL in each well).
(§3) Once the OD600 of the bacterial suspensions reached 0.5, the bacteria were diluted with MHB (final concentration 2 × 10^5 CFU mL−1) and added to the microplates containing the test compounds (50 µL to each well, final volume: 100 µL). The well-plates were sealed with an adhesive membrane and after 16 h of incubation at 37°C with shaking at 220 rpm the wells were visually inspected for bacterial growth. MIC values reported are based on three technical replicates and defined as the lowest concentration of the compound that prevented visible growth of bacteria. […]

A. baumannii ATCC 17961 = assay type: cell-based
Experimental: as §1, §2, §3

A. baumannii ATCC 17978 = assay type: cell-based
Experimental: as §1, §2, §3

E. coli ATCC 25922 [1] = assay type: cell-based
Experimental: as §1, §2, §3

K. pneumoniae 2048 = assay type: cell-based
Experimental: as §1, §2, §3

K. pneumoniae ATCC 11228 = assay type: cell-based
Experimental: as §1, §2, §3

K. pneumoniae ATCC 13883 = assay type: cell-based
Experimental: as §1, §2, §3

K. pneumoniae JS-123 = assay type: cell-based
Experimental: as §1, §2, §3

P. aeruginosa ATCC 27853 = assay type: cell-based
Experimental: as §1, §2, §3

P. aeruginosa M-120 = assay type: cell-based
Experimental: as §1, §2, §3

P. aeruginosa NRZ-03961 = assay type: cell-based
Experimental: as §1, §2, §3

P. aeruginosa PAO1 = assay type: cell-based
Experimental: as §1, §2, §3

S. aureus USA300 = assay type: cell-based
Experimental: as §1, §2, §3

Gram-negative bacteria = test: MIC comparison across the bacterial panel of Table 1; assay type: cell-based; conditions: enantiomer versus natural product, strains of Table 1
Experimental: as §1
as §2, with “Individually grown colonies were subsequently used to inoculate 3 mL aliquots of TSB that were then incubated at 37°C with shaking at 220 rpm.” left out, “well). […]” for “well).”

A. baumannii MDR = assay type: cell-based
Experimental: as §1, §2, §3

E. coli ATCC 25922 MCR-1 = assay type: cell-based; conditions: Ec ATCC 25922 MCR-1; broth microdilution (CLSI), MHB, 16 h 37 °C, three technical replicates
Experimental: as §1, §2, §3

E. coli EQAS MCR-2 = assay type: cell-based; conditions: Ec EQAS MCR-2; broth microdilution (CLSI), MHB, 16 h 37 °C, three technical replicates
Experimental: as §1, §2, §3

[2] = test system: E. coli MCR-1 (clinical isolate); assay type: cell-based
Experimental: as §1, §2, §3

E. coli ATCC 25922 [3] = test: Neutropenic mouse thigh infection efficacy study; assay type: in vivo, mice (ICR); conditions: neutropenic mice, E. coli ATCC 25922 thigh infection, 20 mg kg^−1 SC q8h
Experimental: In vivo tolerability and efficacy studies
Ethical Issues. Animal experiments were performed under UK Home Office Licences P89653310 (tolerability and PK) and PA67E0BAA (thigh efficacy), with local ethical committee clearance.
Animal Strain. Mice used in these studies were supplied by Charles River (Margate UK) and were specific pathogen free. The strain of mice used was ICR (also known as CD1 Mice) which is a well characterized outbred murine strain. Mice (male) were 11-15 g on receipt and were allowed to acclimatise for at least 7 days.
Animal Housing. Mice were housed in sterilised individual ventilated cages exposing the mice at all times to HEPA filtered sterile air. Mice had free access to food and water and had aspen chip bedding (changed at least once weekly). The room temperature was 22°C +/ - 1°C, with a relative humidity of 60% and maximum background noise of 56 dB. Mice were exposed to 12 h light/dark […]
Test compounds. Compound 6 was dissolved in water for injection in which it formed a clear […]
colourless solution. […]
Compound 6 was administered via subcutaneous administration route at 3 8-h […]
The mice used in the tolerability study were naïve and were not immunosuppressed or infected.
Efficacy study. The in vivo efficacy of compound 6 was assessed in a mouse thigh abscess model where both thighs of each mouse were infected with E. coli ATCC 25922
Immunosuppression. […]
Endpoints. One h and 20.5 (planned 25) h post-infection, the clinical condition of all animals was assessed prior to humane euthanasia using pentobarbitone overdose, and the thighs were removed and weighed. Thigh samples were homogenized in 3mL ice cold sterile PBS; the homogenates were quantitatively cultured onto CLED agar and incubated at 37°C for 18 - 24 h before colonies were […]
Data analysis. The data from the culture burdens were analysed using appropriate non-parametric statistical models (Kruskal-Wallis using Conover-Inman to make all pairwise comparisons between groups) with StatsDirect software v. […]

| Compound | MIC (A. baumannii 2018-006; 2018-006, 16 h) [µg/mL] | MIC (A. baumannii ATCC 17961; ATCC 17961, 16 h) [µg/mL] | MIC (A. baumannii ATCC 17978; ATCC 17978, 16 h) [µg/mL] | MIC (E. coli ATCC 25922 [1]; ATCC 25922, 16 h) [µg/mL] | MIC (K. pneumoniae 2048; 2048, 16 h) [µg/mL] | MIC (K. pneumoniae ATCC 11228; ATCC 11228, 16 h) [µg/mL] | MIC (K. pneumoniae ATCC 13883; ATCC 13883, 16 h) [µg/mL] | MIC (K. pneumoniae JS-123; JS-123, 16 h) [µg/mL] | MIC (P. aeruginosa ATCC 27853; ATCC 27853, 16 h) [µg/mL] | MIC (P. aeruginosa M-120; M-120, 16 h) [µg/mL] | MIC (P. aeruginosa NRZ-03961; NRZ-03961, 16 h) [µg/mL] | MIC (P. aeruginosa PAO1; PAO1, 16 h) [µg/mL] | MIC (S. aureus USA300; USA300, 16 h) [µg/mL] | MIC (E. coli EQAS MCR-2) [µg/mL] | further results |
| --- | --- | --- | --- | --- | --- | --- | --- | --- | --- | --- | --- | --- | --- | --- | --- |
| CCC(C)CCC(=O)N[C@@H](CC(N)=O)C(=O)N[C@@H](Cc1ccc(O)cc1)C(=O)N[C@@H](Cc1c[nH]c2ccccc12)C(=O)N[C@@H](CCCN)C(=O)N[C@H](CCCN)C(=O)NCC(=O)N[C@@H](CCCN)C(=O)N[C@H](Cc1c[nH]c2ccccc12)C(=O)N[C@H]1C(=O)N[C@H]([C@H](C)CC)C(=O)NCC(=O)N[C@H](CO)C(=O)O[C@H]1C (single isomer, unassigned) [ent-Brev (ent-1), ent-brevicidine] | 8 to 16 | 32 (≈ 21.1 µM) | 16 to 32 | 16 (≈ 10.5 µM) | 32 (≈ 21.1 µM) | 32 (≈ 21.1 µM) | 32 (≈ 21.1 µM) | 8 (≈ 5.26 µM) | 16 (≈ 10.5 µM) | 16 (≈ 10.5 µM) | 32 (≈ 21.1 µM) | 32 (≈ 21.1 µM) | >64 | – | MIC values higher than the natural products (Gram-negative bacteria): 8- to 32 fold |
| CCC(C)CCC(=O)N[C@H](CC(N)=O)C(=O)N[C@H](Cc1ccc(O)cc1)C(=O)N[C@H](Cc1c[nH]c2ccccc12)C(=O)N[C@H](CCCN)C(=O)N[C@@H](CCCN)C(=O)NCC(=O)N[C@H](CCCN)C(=O)N[C@@H](Cc1c[nH]c2ccccc12)C(=O)N[C@H]1COC(=O)[C@H](CO)NC(=O)CNC(=O)[C@H]([C@@H](C)CC)NC1=O (stereo partly drawn) [Ser9-Brev (3), Ser9-Brevicidine] ({Hexanoyl(4ξ-Me)}-[dN][dY][dW][dOrn][Orn]G[dOrn]WSIGS; ester 9-C) | 2 (≈ 1.33 µM) | 0.5 to 1 | 2 (≈ 1.33 µM) | 4 (≈ 2.66 µM) | 4 (≈ 2.66 µM) | 2 (≈ 1.33 µM) | 2 (≈ 1.33 µM) | 2 (≈ 1.33 µM) | 1 (≈ 0.664 µM) | 2 (≈ 1.33 µM) | 4 (≈ 2.66 µM) | 2 to 4 | >64 | 4 to 8 | MIC (A. baumannii MDR; MDR, 16 h): 1 to 2 µg/mL; MIC (E. coli ATCC 25922 MCR-1): 4 µg/mL (≈ 2.66 µM); MIC ([2]; MCR-1 (clinical isolate, 16 h)): 2 µg/mL (≈ 1.33 µM) |
| polymyxin B [PolyB, reference compound] | – | – | – | – | – | – | – | – | – | – | – | – | – | 4 | MIC (A. baumannii 2018-006; Ab 2018-006, broth microdilution (CLSI), MHB, 16 h 37 °C, three technical replicates): <0.25 µg/mL; MIC (A. baumannii ATCC 17961; Ab ATCC 17961, broth microdilution (CLSI), MHB, 16 h 37 °C, three technical replicates): <0.25 µg/mL; MIC (A. baumannii ATCC 17978; Ab ATCC 17978, broth microdilution (CLSI), MHB, 16 h 37 °C, three technical replicates): <0.25 µg/mL; MIC (A. baumannii MDR; Ab MDR, broth microdilution (CLSI), MHB, 16 h 37 °C, three technical replicates): <0.25 µg/mL; MIC (E. coli ATCC 25922 [1]; Ec ATCC 25922, broth microdilution (CLSI), MHB, 2 × 10^5 CFU/mL, 16 h 37 °C, visual read-out, three technical replicates): 0.5 µg/mL; MIC ([2]; Ec MCR-1, broth microdilution (CLSI), MHB, 16 h 37 °C, three technical replicates): 2 to 4 µg/mL; MIC (K. pneumoniae 2048; Kp 2048, broth microdilution (CLSI), MHB, 16 h 37 °C, three technical replicates): 0.5 to 1 µg/mL; MIC (K. pneumoniae ATCC 11228; Kp ATCC 11228, broth microdilution (CLSI), MHB, 16 h 37 °C, three technical replicates): <0.25 µg/mL; MIC (K. pneumoniae ATCC 13883; Kp ATCC 13883, broth microdilution (CLSI), MHB, 16 h 37 °C, three technical replicates): 0.25 µg/mL; MIC (K. pneumoniae JS-123; Kp JS-123, broth microdilution (CLSI), MHB, 16 h 37 °C, three technical replicates): <0.25 µg/mL; MIC (P. aeruginosa ATCC 27853; Pa ATCC 27853, broth microdilution (CLSI), MHB, 16 h 37 °C, three technical replicates): <0.25 µg/mL; MIC (P. aeruginosa M-120; Pa M-120, broth microdilution (CLSI), MHB, 16 h 37 °C, three technical replicates): <0.25 µg/mL; MIC (P. aeruginosa NRZ-03961; Pa NRZ-03961, broth microdilution (CLSI), MHB, 16 h 37 °C, three technical replicates): 0.25 to 0.5 µg/mL; MIC (P. aeruginosa PAO1; Pa PAO1, broth microdilution (CLSI), MHB, 16 h 37 °C, three technical replicates): 0.25 to 0.5 µg/mL; MIC (S. aureus USA300; Sa USA300, broth microdilution (CLSI), MHB, 16 h 37 °C, three technical replicates): 64 µg/mL; antibacterial effect in thigh infection, compared with Dap9-Lat (6) at 40 mg kg^−1 (E. coli ATCC 25922 [3]): comparable |
